{"source": "patent US10738011B2", "about": "“Derivatives of 5-(hetero)arylpyrazol-3-carboxylic amide or 1-(hetero)aryltriazol-4-carboxylic amide useful for the treatment of inter alia cystic fibrosis” (Proteostasis Therapeutics, Inc., priority 2014, dated 2020)", "data": [{"target": "T1, ΔF508-CFTR (Homo sapiens, UniProt P13569, DEL508-508)", "T1 construct": "Primary lung epithelial cells homozygous for the Cystic Fibrosis-causing ΔF508 mutation were differentiated; endogenous in cells; host or cells: primary lung (bronchial) epithelial cells (hBE) homozygous for ΔF508, differentiated at an air-liquid interface", "T1 sequence (P13569 with tags, fused parts or gaps DEL508-508)": "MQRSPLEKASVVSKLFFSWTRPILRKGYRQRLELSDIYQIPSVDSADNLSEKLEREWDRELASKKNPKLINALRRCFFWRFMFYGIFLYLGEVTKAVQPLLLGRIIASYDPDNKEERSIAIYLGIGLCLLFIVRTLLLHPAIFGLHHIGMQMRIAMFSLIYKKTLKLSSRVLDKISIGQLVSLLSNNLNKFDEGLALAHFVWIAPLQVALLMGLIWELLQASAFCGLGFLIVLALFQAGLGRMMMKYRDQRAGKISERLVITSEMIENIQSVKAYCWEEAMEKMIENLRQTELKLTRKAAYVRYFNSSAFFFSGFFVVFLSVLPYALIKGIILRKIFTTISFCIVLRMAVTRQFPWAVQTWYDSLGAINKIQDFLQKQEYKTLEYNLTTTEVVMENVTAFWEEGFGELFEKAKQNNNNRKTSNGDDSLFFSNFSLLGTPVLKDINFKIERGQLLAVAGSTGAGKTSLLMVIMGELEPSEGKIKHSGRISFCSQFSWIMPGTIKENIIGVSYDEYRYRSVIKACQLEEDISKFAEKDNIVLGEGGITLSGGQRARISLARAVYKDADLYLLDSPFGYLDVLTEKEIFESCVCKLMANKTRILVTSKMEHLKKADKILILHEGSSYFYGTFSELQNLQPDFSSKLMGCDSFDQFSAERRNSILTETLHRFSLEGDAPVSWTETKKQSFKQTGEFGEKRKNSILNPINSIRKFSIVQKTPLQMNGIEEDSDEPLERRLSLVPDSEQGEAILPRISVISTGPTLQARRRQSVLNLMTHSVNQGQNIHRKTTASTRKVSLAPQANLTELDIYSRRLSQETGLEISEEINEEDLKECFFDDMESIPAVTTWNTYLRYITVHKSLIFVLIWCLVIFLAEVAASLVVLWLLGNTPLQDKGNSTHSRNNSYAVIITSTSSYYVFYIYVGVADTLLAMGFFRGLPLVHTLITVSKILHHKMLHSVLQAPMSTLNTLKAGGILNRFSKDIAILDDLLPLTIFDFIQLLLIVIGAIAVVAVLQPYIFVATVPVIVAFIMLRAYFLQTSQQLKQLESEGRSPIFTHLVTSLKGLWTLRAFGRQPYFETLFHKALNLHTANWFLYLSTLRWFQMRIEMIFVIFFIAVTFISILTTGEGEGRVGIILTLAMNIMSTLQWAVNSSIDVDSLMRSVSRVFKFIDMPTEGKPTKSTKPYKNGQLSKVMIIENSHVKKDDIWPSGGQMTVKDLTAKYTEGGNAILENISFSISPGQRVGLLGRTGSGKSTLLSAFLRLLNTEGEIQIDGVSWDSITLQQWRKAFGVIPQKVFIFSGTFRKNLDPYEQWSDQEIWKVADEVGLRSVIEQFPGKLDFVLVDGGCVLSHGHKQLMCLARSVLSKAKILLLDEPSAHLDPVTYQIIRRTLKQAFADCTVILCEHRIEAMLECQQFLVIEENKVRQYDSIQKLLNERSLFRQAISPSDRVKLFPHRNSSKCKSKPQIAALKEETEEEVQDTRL", "assay": "hBE Equivalent Current (Ieq) Assay", "type": "cell-based", "conditions": "AUC of equivalent chloride current; primary lung epithelial cells homozygous for ΔF508; compound at 10 uM with VX-809 at 1 uM, 24 hours; activity relative to VX-809 (1 uM)", "description": "Primary lung epithelial cells homozygous for the Cystic Fibrosis-causing ΔF508 mutation were differentiated for a minimum of 4 weeks in an air-liquid interface on Costar 24 well HTS filter plates prior to the equivalent current (Ieq) measurements. Cells were apically mucus-washed for 30 minutes 24 h prior to treatment with compounds. The basolateral media was removed and replaced with media containing the compound of interest diluted to its final concentration from DMSO stocks. Treated cells were incubated at 37° C. and 5% CO2 for 24 hours. At the end of the treatment period, the media was changed to the Ieq experimental solution for 30 minutes before the experiment and plates are maintained in a CO2-free incubator during this period. The plates containing the cells were then placed in pre-warmed heating blocks at 36° C.±0.5 for 15 minutes before measurements are taken. The transepithelial voltage (VT) and conductance (GT) were measured using a custom 24 channel current clamp (TECC-24) with 24 well electrode manifold. The Ieq assay measurements were made following additions with standardized time periods: • 1. The baseline VT and GT values were measured for approximately 20 minutes. • 2. Benzamil was added to block ENaC for 15 minutes. • 3. Forskolin plus VX-770 were added to maximally activate ΔF508-CFTR for 27 minutes. • 4. Bumetanide was added to inhibit the NaK2Cl cotransporter and shut-off secretion of chloride.\nThe activity data captured was the area under the curve (AUC) for the traces of the equivalent chloride current. The AUC was collected from the time of the forskolin/VX-770 addition until the inhibition by bumetanide addition. Correction in response to compound treatment was scored as the increase in the AUC for compound-treated samples over that of vehicle-treated samples. (** indicates activity ≥200% of VX-809 (1 uM) with compound at 10 uM and VX-809 at 1 uM; * indicates activity 100-200% of VX-809 (1 uM) with compound at 10 uM and VX-809 at 1 uM. ^## indicates activity ≥200% of VX-809 (3 uM) with compound at 10 uM and VX-809 at 3 uM; ^# indicates activity 100-200% of VX-809 (3 uM) with compound at 10 uM and VX-809 at 3 uM.", "values": [{"smiles": "COCCNC(=O)c1cc(-c2ccccc2)n[nH]1", "Ieq": "* (activity 100-200% of VX-809 (1 uM) with compound at 10 uM and VX-809 at 1 uM)"}, {"smiles": "O=C(NCC1CCCO1)c1cc(-c2ccccc2)n[nH]1", "note": "(stereo not shown)", "Ieq": "* (activity 100-200% of VX-809 (1 uM) with compound at 10 uM and VX-809 at 1 uM)"}, {"smiles": "O=C(NCCN1CCOCC1)c1cc(-c2ccccc2)n[nH]1", "Ieq": "* (activity 100-200% of VX-809 (1 uM) with compound at 10 uM and VX-809 at 1 uM)"}, {"smiles": "O=C(NCCCn1ccnc1)c1cc(-c2ccccc2)n[nH]1", "Ieq": "* (activity 100-200% of VX-809 (1 uM) with compound at 10 uM and VX-809 at 1 uM)"}]}]}
